Laboratory results published in patent publication US20100144712A1 (priority 2007, published 2010).
Values after ≈ are worked out from the molar mass of the structure shown.

Experiments:
Type in all cases: cell-based
[1] = test system: Candida albican ATCC MYA-1003; assay: In vitro antifungal activity (MIC80), Candida albican ATCC MYA-1003; details: Candida; Table 2, MYA 1003; read-out: Minimal inhibitory concentration (MIC80)
Procedure: (§1) In vitro antifungal activities of the inventive antifungal compounds were evaluated using test strains including Candida albican (ATCC 90873, 204276, 62342, 64124, 64550, 96901, MYA-573, MYA-574, MYA-575, MYA-576, MYA-1003) and Aspergillus fumigatus (ATCC 16424). Test samples and positive control samples were prepared by dissolving the inventive compounds and comparative compounds, i.e., amphotericin B, fluconazole and itraconazole, in DMSO, respectively, and each successively diluted with medium to obtain test and positive control solutions having test compound concentrations of 0.125 μg/ml to a maximum concentration not generating turbidity. Minimal inhibitory concentration (MIC80) of each compound was determined as the lowest concentration of the test compounds required to reduce growth by 80% relative to a control strain not treated.
(§2) 1) Test strain: Candida albican ATCC 90873, 204276, 62342, 64124, 64550, 96901, MYA-573, MYA-574, MYA-575, MYA-576, MYA-1003, and Aspergillus fumigatus ATCC 16424 were commercially obtained from The American Type Culture Collection (ATCC) and subcultured in CHEMON Co. Ltd. (amphotericin B was commercially purchased from Sigma, and fluconazole and itraconazole were prepared according to methods described in British Patent No. 2,099,818; and U.S. Pat. No. 4,267,179, respectively).
(§3) 2) Medium and culture condition: Candida albican was cultured in Sabourad Dextrose Agar, YM Agar or Potato Dextrose Agar according to ATCC information at a temperature of 37° C., 35° C., 30° C. or 25° C. Aspergillus fumigatus was cultured in Malt Extract Agar or Potato Dextrose Agar at a temperature ranging from 24 to 27° C.
(§4) 3) Preparation of test samples: the inventive compounds and comparative compounds were each diluted with DMSO to obtain 1 to 2 ml of a test sample in a concentration of 100-folds of the determining maximum concentration (256 μg/ml).
(§5) The test samples were each successively diluted with RPMI 1640 to obtain test solutions having concentrations of […] in a 12×75 mm sterilized disposable culture tube. The final concentration of DMSO was adjusted to […] (v/v).
(§6) 5) Preparation of strain solution and inoculation
(§7) Candida albican strains were each subcultured in Sabourad Dextrose Agar, YM Agar or Potato Dextrose Agar medium at 35° C. for 2˜3 days. In the case of yeasts, a single colony was taken from prominent colonies and suspended in 0.85% sterile physiological saline solution and the turbidity of the suspension was adjusted to 80˜82% at 530 nm, and then diluted 50-fold with RPMI 1640 medium to 1.0×10^3˜5.0×10^3 CFU/ml. The turbidity of fungi was adjusted to 80˜82% and the suspension was diluted 50-fold to […]. Aspergillus fumigatus strains were subcultured in Malt Extract Agar for 7˜10 days, and a single colony was taken from prominent colonies and suspended in 0.85% sterile physiological saline solution and the suspension was adjusted to 0.108 at 530 nm, and then diluted 1000-fold with RPMI 1640 medium to 0.4×10^2˜5×10^4 CFU/ml. The turbidity of fungi was adjusted to 80˜82% and the suspension was diluted 50-fold to 0.4102˜0.5104 CFU/ml.
(§8) The strain solutions thus obtained were each seeded into a sterilized 96-well microplate, 0.1 ml of each test solution were added thereto, and […] of alamarblue was treated to each well (Biosource, #DAL1100). This procedure was repeated 2 times.
(§9) Minimal inhibitory concentration (MIC80) of each compound was determined as the lowest concentration of the test compounds required to reduce growth by 80% relative to a control strain not treated.

[2] = test system: Candida albican ATCC MYA-574; assay: In vitro antifungal activity (MIC80), Candida albican ATCC MYA-574; details: Candida; Table 2, MYA 574; read-out: Minimal inhibitory concentration (MIC80)
Procedure: as §1, §2, §3, §4, §5, §6, §7, §8, §9

[3] = test system: Candida albican ATCC MYA-573; assay: In vitro antifungal activity (MIC80), Candida albican ATCC MYA-573; details: Candida; Table 2, MYA 573; read-out: Minimal inhibitory concentration (MIC80)
Procedure: as §1, §2, §3, §4, §5, §6, §7, §8, §9

[4] = test system: Candida albican ATCC 90873; assay: In vitro antifungal activity (MIC80), Candida albican ATCC 90873; details: Candida, ATCC90873; Table 2, ATCC 90873; read-out: Minimal inhibitory concentration (MIC80)
Procedure: as §1, §2, §3, §4, §5, §6, §7, §8, §9

[5] = test system: Candida albican ATCC MYA-575; assay: In vitro antifungal activity (MIC80), Candida albican ATCC MYA-575; details: Candida; Table 2, MYA 575; read-out: Minimal inhibitory concentration (MIC80)
Procedure: as §1, §2, §3, §4, §5, §6, §7, §8, §9

[6] = test system: Candida albican ATCC MYA-576; assay: In vitro antifungal activity (MIC80), Candida albican ATCC MYA-576; details: Candida; Table 2, MYA 576; read-out: Minimal inhibitory concentration (MIC80)
Procedure: as §1, §2, §3, §4, §5, §6, §7, §8, §9

[7] = test system: Candida albican ATCC 64550; assay: In vitro antifungal activity (MIC80), Candida albican ATCC 64550; details: Candida, ATCC64550; Table 2, 64550; read-out: Minimal inhibitory concentration (MIC80)
Procedure: as §1, §2, §3, §4, §5, §6, §7, §8, §9

[8] = test system: Candida albican ATCC 64124; assay: In vitro antifungal activity (MIC80), Candida albican ATCC 64124; details: Candida, ATCC64124; Table 2, 64124; read-out: Minimal inhibitory concentration (MIC80)
Procedure: as §1, §2, §3, §4, §5, §6, §7, §8, §9

[9] = test system: Candida albican ATCC 62342; assay: In vitro antifungal activity (MIC80), Candida albican ATCC 62342; details: Candida, ATCC62342; Table 2, 62342; read-out: Minimal inhibitory concentration (MIC80)
Procedure: as §1, §2, §3, §4, §5, §6, §7, §8, §9

[10] = test system: Candida albican ATCC 96901; assay: In vitro antifungal activity (MIC80), Candida albican ATCC 96901; details: Candida, ATCC96901; Table 2, ATCC 96901; read-out: Minimal inhibitory concentration (MIC80)
Procedure: as §1, §2, §3, §4, §5, §6, §7, §8, §9

Row | Structure (SMILES) | MIC80 [1] | MIC80 [2] | MIC80 [3] | MIC80 [4] | MIC80 [5] | MIC80 [6] | MIC80 [7] | MIC80 [8] | MIC80 [9] | MIC80 [10]
1 | C[C@@H](N1CCN(c2nc3ccc(N(C)CCN4CCOCC4)cc3s2)CC1)[C@](O)(Cn1cncn1)c1ccc(F)cc1F [Example 13, (2R,3R)-3-(4-(6-(N-methyl-N-(2-morpholinoethyl)amino)benzothiazol-2-yl)piperazin-1-yl)-2-(2,4-difluorophenyl)-1-(1H-1,2,4-triazol-1-yl)butan-2-ol] | 32 µg/mL (≈ 52.2 µM) | 16 µg/mL (≈ 26.1 µM) | 0.25 µg/mL (≈ 0.408 µM) | 0.125 µg/mL (≈ 0.204 µM) | 0.125 µg/mL (≈ 0.204 µM) | 0.125 µg/mL (≈ 0.204 µM) | 0.5 µg/mL (≈ 0.816 µM) | 2 µg/mL (≈ 3.26 µM) | 0.25 µg/mL (≈ 0.408 µM) | 8 µg/mL (≈ 13.1 µM)
2 | C[C@@H](N1CCN(c2cccc(OCCN3CCOCC3)n2)CC1)[C@](O)(Cn1cncn1)c1ccc(F)cc1F [Example 26, (2R,3R)-2-(2,4-difluorophenyl)-3-(4-(6-(2-morpholinoethoxy)pyridin-2-yl)piperazin-1-yl)-1-(1H-1,2,4-triazol-1-yl)butan-2-ol] | > 128 µg/mL | 16 µg/mL (≈ 29.4 µM) | 8 µg/mL (≈ 14.7 µM) | 0.25 µg/mL (≈ 0.46 µM) | 0.5 µg/mL (≈ 0.92 µM) | 0.5 µg/mL (≈ 0.92 µM) | 8 µg/mL (≈ 14.7 µM) | > 128 µg/mL | 4 µg/mL (≈ 7.36 µM) | > 128 µg/mL
3 | C[C@@H](N1CCN(c2ccc(OCc3cccs3)nc2)CC1)[C@](O)(Cn1cncn1)c1ccc(F)cc1F [Example 35, (2R,3R)-2-(2,4-difluorophenyl)-3-(4-(6-(thiophen-2-ylmethoxy)pyridin-3-yl)piperazin-1-yl)-1-(1H-1,2,4-triazol-1-yl)butan-2-ol] | > 128 µg/mL | 1 µg/mL (≈ 1.9 µM) | 0.5 µg/mL (≈ 0.949 µM) | 0.125 µg/mL (≈ 0.237 µM) | 0.125 µg/mL (≈ 0.237 µM) | 0.125 µg/mL (≈ 0.237 µM) | 1 µg/mL (≈ 1.9 µM) | 8 µg/mL (≈ 15.2 µM) | 0.5 µg/mL (≈ 0.949 µM) | > 128 µg/mL
4 | CC(C)Oc1cccc(N2CCN([C@H](C)[C@](O)(Cn3cncn3)c3ccc(F)cc3F)CC2)n1 [Example 24, (2R,3R)-2-(2,4-difluorophenyl)-3-(4-(6-(isopropyloxy)pyridin-2-yl)piperazin-1-yl)-1-(1H-1,2,4-triazol-1-yl)butan-2-ol] | > 128 µg/mL | 8 µg/mL (≈ 16.9 µM) | 4 µg/mL (≈ 8.46 µM) | 0.125 µg/mL (≈ 0.265 µM) | 0.5 µg/mL (≈ 1.06 µM) | 0.25 µg/mL (≈ 0.529 µM) | 2 µg/mL (≈ 4.23 µM) | > 128 µg/mL | 8 µg/mL (≈ 16.9 µM) | > 128 µg/mL
5 | C[C@@H](N1CCN(c2ccc(OC3CCCC3)nc2)CC1)[C@](O)(Cn1cncn1)c1ccc(F)cc1F [Example 31, (2R,3R)-3-(4-(6-(cyclopentyloxy)pyridin-3-yl)piperazin-1-yl)-2-(2,4-difluorophenyl)-1-(1H-1,2,4-triazol-1-yl)butan-2-ol] | > 128 µg/mL | 4 µg/mL (≈ 8.02 µM) | 2 µg/mL (≈ 4.01 µM) | 0.125 µg/mL (≈ 0.251 µM) | 0.25 µg/mL (≈ 0.501 µM) | 0.25 µg/mL (≈ 0.501 µM) | 1 µg/mL (≈ 2.01 µM) | 64 µg/mL (≈ 128 µM) | 1 µg/mL (≈ 2.01 µM) | 4 µg/mL (≈ 8.02 µM)
6 | C[C@@H](N1CCN(c2cccc(OCc3ccccc3)n2)CC1)[C@](O)(Cn1cncn1)c1ccc(F)cc1F [Example 20, (2R,3R)-3-(4-(6-(benzyloxy)pyridin-2-yl)piperazin-1-yl)-2-(2,4-difluorophenyl)-1-(1H-1,2,4-triazol-1-yl)butan-2-ol] | > 128 µg/mL | 1 µg/mL (≈ 1.92 µM) | 0.5 µg/mL (≈ 0.96 µM) | 0.125 µg/mL (≈ 0.24 µM) | 0.25 µg/mL (≈ 0.48 µM) | 0.25 µg/mL (≈ 0.48 µM) | 1 µg/mL (≈ 1.92 µM) | 8 µg/mL (≈ 15.4 µM) | 1 µg/mL (≈ 1.92 µM) | 2 µg/mL (≈ 3.84 µM)
7 | CC(N1CCN(c2ccc(N(C)CCc3cccs3)nc2)CC1)C(O)(Cn1cncn1)c1ccc(F)cc1F (stereo not drawn) [Example 37] | > 128 µg/mL | 2 µg/mL (≈ 3.61 µM) | 1 µg/mL (≈ 1.81 µM) | 0.125 µg/mL (≈ 0.226 µM) | 0.5 µg/mL (≈ 0.903 µM) | 0.5 µg/mL (≈ 0.903 µM) | 4 µg/mL (≈ 7.22 µM) | 32 µg/mL (≈ 57.8 µM) | 1 µg/mL (≈ 1.81 µM) | > 128 µg/mL
8 | CCCCOc1ccc(N2CCN([C@H](C)[C@](O)(Cn3cncn3)c3ccc(F)cc3F)CC2)cn1 [Example 32, (2R,3R)-3-(4-(6-(butyloxy)pyridin-3-yl)piperazin-1-yl)-2-(2,4-difluorophenyl)-1-(1H-1,2,4-triazol-1-yl)butan-2-ol] | > 128 µg/mL | 4 µg/mL (≈ 8.22 µM) | 1 µg/mL (≈ 2.06 µM) | 0.125 µg/mL (≈ 0.257 µM) | 0.5 µg/mL (≈ 1.03 µM) | 0.125 µg/mL (≈ 0.257 µM) | 1 µg/mL (≈ 2.06 µM) | 4 µg/mL (≈ 8.22 µM) | 1 µg/mL (≈ 2.06 µM) | 8 µg/mL (≈ 16.4 µM)
9 | CCCCOc1cccc(N2CCN([C@H](C)[C@](O)(Cn3cncn3)c3ccc(F)cc3F)CC2)n1 [Example 23, (2R,3R)-3-(4-(6-(butyloxy)pyridin-2-yl)piperazin-1-yl)-2-(2,4-difluorophenyl)-1-(1H-1,2,4-triazol-1-yl)butan-2-ol] | > 128 µg/mL | > 128 µg/mL | > 128 µg/mL | 0.25 µg/mL (≈ 0.514 µM) | 0.5 µg/mL (≈ 1.03 µM) | 0.5 µg/mL (≈ 1.03 µM) | > 128 µg/mL | > 128 µg/mL | > 128 µg/mL | > 128 µg/mL
